Where two headings read alike, the source gives them in different places.
Experiments:
SMN2 mRNA = experiment: Splicing RT-qPCR gene panel, SMN2 canonical junction (CJ) mRNA; type: cell-based; settings: Homo sapiens; Table 8; larger gene panel, decrease in CJ mRNA levels
Summary of the method: (§1)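 A673/K562; 11-pt 3-fold dil., top 10 uM final, ≤0.25% DMSO; 24 h, 37 °C, 5% CO2. Lysis, then RT-qPCR of CJ/AJ isoforms, ≥duplicate. ΔCt vs housekeeper (GAPDH/GUSB/PPIA), ΔΔCt vs DMSO, RQ = 2^(−ΔΔCt), expressed as % response.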

HTT mRNA = experiment: Splicing RT-qPCR assay, HTT canonical (CJ) and alternative (AJ) junction mRNA; type: cell-based; settings: Homo sapiens; for EC50: AC50 = 50% response in AJ mRNA increase
Summary of the method: as §1

HiBiT-tagged MYB protein = experiment: HiBiT protein abundance assay, MYB (K562 HiBiT knock-in cells); type: cell-based, human; settings: 24 hours treatment
Protocol: (§2) Compounds described herein were used to screen for effects on quantitative protein abundance using a HiBit assay system (Promega). Quantitative protein abundance was determined by measuring the protein levels of HiBit-tagged protein targets expressed in cell culture via luminescence using the Nano-Glo HiBiT Lytic Detection System, which uses a split complementation assay format to reconstitute NanoBiT enzyme to generate a luminescent signal. A protein abundance assay was developed such that endogenous protein targets could be modified with the HiBiT peptide tag and their abundance could be assessed after compound treatment. Briefly, K562 cell lines containing a HiBiT-modification were treated with various compounds described herein (e.g., compounds of Formulas (I), or (II)). After treatment for 24 hours, the protein abundance of a specific target was determined by measuring luminescence.
(§3) Cells were maintained in IMDM with 10% FBS. Before the assay, cells were diluted with […] growth media (IMDM+[…] media) and were seeded in a 384-well plate at a density of 10000 cells/well (for each cell line listed in Table 6). Each compound was prepared as a 10-point 3-fold serial dilution in DMSO with the top dose at a final concentration of […] in the well. Unmodified K562 cells were added at the previously specified density with DMSO to serve as an assay baseline and positive control (PC) and DMSO only with the respective modified cell lines was added to the negative control (NC) columns. Final DMSO concentration was kept at or below 0.25%. Treated cell plates were placed in an incubator at 37° C. with […] for 24 hours. After 24 hours, 25 μL of Complete HiflitLytic reagent was added to each well at room temperature (e.g. one plate requiring 10 mL Lytic Buffer, 100 μL LgBiT Protein, 200 μL Lytic Substrate), shaken for 5 minutes at 600 RPM, then left to sit for 10 minutes for signal to stabilize before reading on a Spark Cyto plate reader (Tecan) with a 500 ms measurement time.
(§4) To determine compound effects on protein abundance of each target in Table 6, the percent response for each respective cell line was calculated at each compound concentration as follows:
(§5) For the normalized response at each concentration, a four-parameter logistical regression was fit to the data and the response was interpolated at the 50% value to determine a concentration for protein abundance at 50% (IC50) the untreated control.

HiBiT-tagged HTT protein = experiment: HiBiT protein abundance assay, HTT (K562 HiBiT knock-in cells); type: cell-based, human; settings: 24 hours treatment
Protocol: as §2, §3, §4, §5

Target C = experiment: HiBiT protein abundance assay, Target C (K562 HiBiT knock-in cells); type: cell-based, human; settings: 24 hours treatment
Protocol: • Promega Nano-Glo HiBiT Lytic Detection System (cat #N3030) • Corning 384-well TC-treated microplates (cat #3570) • Synthego Engineered Cells Knock-In Clones
as §3, §4, §5

MYB mRNA = experiment: Splicing RT-qPCR assay, MYB canonical (CJ) and alternative (AJ) junction mRNA; type: cell-based; settings: Homo sapiens; for EC50: AC50 = 50% response in AJ mRNA increase
Summary of the method: as §1

Target C mRNA = experiment: Splicing RT-qPCR gene panel, Target C canonical junction (CJ) mRNA; type: cell-based; settings: Homo sapiens; Table 8; larger gene panel, decrease in CJ mRNA levels
Summary of the method: as §1

[1] = tested on: K562 (human chronic myelogenous leukemia) cells; experiment: Cell viability, Cell Titer Glo 2.0 assay, K562 cells; type: cell-based; settings: 72 hours
Protocol: Compounds described herein were screened for toxicity in K562 (human chronic myelogenous leukemia) and SH-SY5Y (human neuroblastoma) cells using a Cell Titer Glo 2.0 assay.
Cells were plated at 500 cells/well (K562 cells) in 45 μL of IMDM supplemented with 10% FBS in a 384-well opaque plate. Wells containing only medium were used as a blank control. Test compounds (e.g., compounds of Formula (I), (III), (IV), (V), or (VI)) were first serially diluted in DMSO then diluted 1:100 with IMDM+10% FBS. The final concentration of DMSO was 0.1% in each well. The cells were incubated for 72 hours at 37° C. and 5% CO2 before assaying with Cell Titer Glo 2.0 reagent.

[2] = Table 7, RT-qPCR, A673 or K562 cells, 24 hours treatment
[3] = Table 7, IC50 = 50% response in CJ mRNA decrease, RT-qPCR, A673 or K562 cells, 24 hours treatment, read-out: HTT CJ
[4] = Table 8, larger gene panel, decrease in CJ mRNA levels, read-out: HTT CJ IC50
[5] = Table 7, IC50 = 50% response in CJ mRNA decrease, RT-qPCR, A673 or K562 cells, 24 hours treatment, read-out: MYB CJ
[6] = Table 8, larger gene panel, decrease in CJ mRNA levels, read-out: MYB CJ IC50

SMILES | IC50 (SMN2 mRNA) | EC50 (HTT mRNA; [2]) | IC50 (HTT mRNA; [3]) | IC50 (HTT mRNA; [4]) | IC50 (HiBiT-tagged MYB protein) | IC50 (HiBiT-tagged HTT protein) | IC50 (Target C) | EC50 (MYB mRNA; [2]) | IC50 (MYB mRNA; [5]) | IC50 (MYB mRNA; [6]) | IC50 (Target C mRNA) | IC50 [1]
Cc1cn2nc(-c3cc4cn([C@H]5CCNC[C@@H]5F)nc4s3)cc(C)c2n1 (mixture of isomers) [Compound 212, 5-(2,8-dimethylimidazo[1,2-b]pyridazin-6-yl)-2-((1:1 mixture of 3S,4S and 3R,4R)-3-fluoropiperidin-4-yl)-2H-thieno[2,3-c]pyrazole] | 100 to 1000 nM | 1000 to 10000 nM | 1000 to 10000 nM | 1000 to 10000 nM | > 10000 nM | 1000 to 10000 nM | > 10000 nM | > 10000 nM | 1000 to 10000 nM | > 10000 nM | > 10000 nM | 1000 to 10000 nM
Cc1cn2nc(-n3cc4sc(C5CCNCC5)cc4n3)cc(C)c2n1 [Compound 101, 4-(2-[2,8-dimethylimidazo[1,2-b]pyridazin-6-yl]thieno[3,2-c]pyrazol-5-yl)piperidine] | < 100 nM | 100 to 1000 nM | < 100 nM | 100 to 1000 nM | 100 to 1000 nM | < 100 nM | < 100 nM | 100 to 1000 nM | 100 to 1000 nM | 100 to 1000 nM | < 100 nM | 100 to 1000 nM
Cn1cc2cc(-n3cc4cc(C5CCNCC5)sc4n3)cc(F)c2n1 [Compound 104, 7-fluoro-2-methyl-5-[5-(piperidin-4-yl)thieno[2,3-c]pyrazol-2-yl]indazole] | < 100 nM | 100 to 1000 nM | < 100 nM | 100 to 1000 nM | 100 to 1000 nM | < 100 nM | 100 to 1000 nM | 100 to 1000 nM | 100 to 1000 nM | 100 to 1000 nM | 100 to 1000 nM | 100 to 1000 nM
Cn1cc2cc(-n3cc4sc(C5CCNCC5)cc4n3)cc(F)c2n1 [Compound 105, 7-fluoro-2-methyl-5-[5-(piperidin-4-yl)thieno[3,2-c]pyrazol-2-yl]indazole] | 100 to 1000 nM | 100 to 1000 nM | 100 to 1000 nM | 100 to 1000 nM | 1000 to 10000 nM | 100 to 1000 nM | 1000 to 10000 nM | 1000 to 10000 nM | 1000 to 10000 nM | 1000 to 10000 nM | 1000 to 10000 nM | 1000 to 10000 nM
Cn1cc2cc(-c3cc4cn(C5CCNCC5)nc4s3)cc(F)c2n1 [Compound 122, 7-fluoro-2-methyl-5-[2-(piperidin-4-yl)thieno[2,3-c]pyrazol-5-yl]indazole] | < 100 nM | < 100 nM | < 100 nM | < 100 nM | < 100 nM | < 100 nM | < 100 nM | 100 to 1000 nM | < 100 nM | 100 to 1000 nM | < 100 nM | < 100 nM
CN(c1cc2nn(-c3ccc(-c4cn[nH]c4)cc3O)cc2s1)[C@@H]1C[C@H]2CC[C@@H](C1)N2 [Compound 148, 2-[5-[(1R,3R,5S)-8-azabicyclo[3.2.1]octan-3-yl(methyl)amino]thieno[3,2-c]pyrazol-2-yl]-5-(1H-pyrazol-4-yl)phenol] | 1000 to 10000 nM | 1000 to 10000 nM | 1000 to 10000 nM | 1000 to 10000 nM | 1000 to 10000 nM | 1000 to 10000 nM | 1000 to 10000 nM | 1000 to 10000 nM | > 10000 nM | 1000 to 10000 nM | > 10000 nM | 1000 to 10000 nM
CCN1CCC(n2cc3cc(-c4cc(F)c5nn(C)cc5c4)sc3n2)CC1 [Compound 149, 5-[2-(1-ethylpiperidin-4-yl)thieno[2,3-c]pyrazol-5-yl]-7-fluoro-2-methylindazole] | < 100 nM | < 100 nM | < 100 nM | < 100 nM | 100 to 1000 nM | < 100 nM | 100 to 1000 nM | 100 to 1000 nM | 100 to 1000 nM | 100 to 1000 nM | 100 to 1000 nM | 100 to 1000 nM
CN1CCC(n2cc3cc(-c4cc(F)c5nn(C)cc5c4)sc3n2)CC1 [Compound 150, 7-fluoro-2-methyl-5-[2-(1-methylpiperidin-4-yl)thieno[2,3-c]pyrazol-5-yl]indazole] | < 100 nM | 100 to 1000 nM | 100 to 1000 nM | 100 to 1000 nM | 100 to 1000 nM | < 100 nM | 100 to 1000 nM | 100 to 1000 nM | 100 to 1000 nM | 100 to 1000 nM | 100 to 1000 nM | 100 to 1000 nM
Cc1cn2cc(-n3cc4cc(C5CCNCC5)sc4n3)cc(C)c2n1 [Compound 155] | < 100 nM | 100 to 1000 nM | 100 to 1000 nM | 100 to 1000 nM | 100 to 1000 nM | < 100 nM | 100 to 1000 nM | 1000 to 10000 nM | 1000 to 10000 nM | 1000 to 10000 nM | 1000 to 10000 nM | 100 to 1000 nM
Cc1cn2cc(-n3cc4cc(C5CCNCC5)sc4n3)cc(F)c2n1 [Compound 156] | < 100 nM | 100 to 1000 nM | < 100 nM | 100 to 1000 nM | 100 to 1000 nM | < 100 nM | < 100 nM | 1000 to 10000 nM | 100 to 1000 nM | 1000 to 10000 nM | 100 to 1000 nM | 100 to 1000 nM

Reference: patent publication US20250109140A1, “5-[5-(PIPERIDIN-4-YL)THIENO[3,2-C]PYRAZOL-2-YL]INDAZOLE DERIVATIVES AND RELATED COMPOUNDS AS MODULATORS FOR SPLICING NUCLEIC ACIDS AND FOR THE TREATMENT OF PROLIFERATIVE DISEASES” (REMIX THERAPUTICS INC., priority 2022, published 2025)
